Tests used:
[1] = Pigment wetting: viscosity difference rate of pigment dispersion; type: physicochemical; conditions: 65% emollient with 35% red iron oxide; rheometer 20.0° C., 10.0 1/s; lower = better pigment wetting
From the text: The viscosity of a pigment dispersion in oil is negatively correlated to the dispersion efficacy of the carrier liquid emollient. Therefore, decreased viscosities confirm the homogeneity of the dispersion. To calculate the viscosity difference rate between the pure emollient without added pigment and the pigment dispersion, the following formula will be used: Viscosity difference rate=(viscosity value after pigment dispersion−viscosity value before pigment dispersion)/(viscosity value before pigment dispersion) The lower the viscosity difference rate the better the pigment wetting. Mixtures of 65% emollient with 35% pigment (red iron oxide) were homogenized and analyzed*. [table]

[2] = Pigment dispersion: particle size by Grindometer; type: physicochemical; conditions: 65% emollient with 35% yellow iron oxide, next day, average of 3
From the text: Mixtures of 65% emollient with 35% pigment (yellow iron oxide) were homogenized and analyzed*. [table]

- Viscosity difference rate [1]: 21
- Average particle size [2]: 31 μm
Substance: Pentaerythrityl Tetraisostearate
